# Test results published in patent US20130302422A1, “PHARMACEUTICAL COMPOSITION FOR TREATMENT AND PREVENTION OF KIDNEY DISEASES” (KT & G CORPORATION, priority 2007, published 2013).
# Legend:
# [1] = system: acute renal failure-induced animals; assay: Acute renal failure induced by ischaemia/reperfusion injury in rats (Experimental Example 1); type: in vivo, Sprague-Dawley rats
# Description: Creatine is non-enzymatically converted into creatinine that is a waste product of muscle energy metabolism. Creatinine is a waste by-product and is therefore filtered by the kidney, but not reabsorbed. Since the muscle mass is generally maintained at a constant level and is less susceptible to other organs except for the kidney, a serum creatinine level is a good marker of the glomerular filtration rate. A higher creatinine concentration reflects more significant impairment of renal function. For example, a two-fold increase of the creatinine level represents a 50% decrease of the glomerular filtration rate.
# Accumulation of toxic ammonia in the body is prevented in a manner that ammonia is produced by deamination of amino acids during a protein metabolic process and is then converted into urea in the liver. When excretory function of the kidney is compromised, the blood urea nitrogen level is elevated. Therefore, measurement of BUN is an important indicator to examine whether the kidney is normally functional or not. When the BUN level is elevated over a normal value, the subject is suspected to have acute nephritis, chronic nephritis, prostate hyperplasia or the like. When the BUN level is dropped below a normal value, the subject is suspected to have diabetes insipidus, muscular dystrophy or the like.
# Among compounds of Formula 1, effects of 7,8-dihydro-2,2-dimethyl-2H-naphtho(2,3-b)dihydropyran-7,8-dione (hereinafter, referred to as “compound of Example 1”) on acute renal failure were examined. For this purpose, 6-week-old male Sprague-Dawley rats, weighing 200 to 220 g (Japan SLC, Inc., Japan) were divided into two groups as given in Table 1 below: a vehicle-treated control group and a group received the compound of Example 1 (200 mg/kg). Animals were given test samples by the oral route. […]
# Following the IR induction, 0.2 mL of serum was sampled from each animal on +1 day, +3 day and +5 day, respectively. Creatinine and BUN (blood urea nitrogen) levels were measured with an automatic biochemical analyzer (HITACHI, 7020).
# [2] = system: diabetic nephropathy-induced animals; assay: Diabetic nephropathy model in ZDF rats (Experimental Example 2); type: in vivo, Zucker diabetic fatty (ZDF) rats; conditions: 250 mg/kg oral
# Description: When the blood glucose level is elevated, glucose in the blood partially binds to hemoglobin in red blood cells, producing glycosylated hemoglobin (termed HbAlc). When glycosylated hemoglobin is formed, the corresponding red blood cells will retain HbAlc until the red blood cells complete their lives to be destroyed. […] The HbAlc reflect a blood glucose value over a relatively long period of time, so the measurement of the HbAlc level may be a useful indicator of how well diabetes has been therapeutically controlled over the past several months.
# An increase in the rate of excretion of albumin in the urine is the most preceding clinical finding in diabetic nephropathy. Therefore, an increased level of urine albumin is an indicator of renal or hepatic diseases.
# 8-week-old male Zucker diabetic fatty (ZDF) rats (Charles River Laboratory) were divided into four groups as given in Table 2 below: Vehicle, MB660 (250 mg/kg), Pair-fed, and Rosi (6 mg/kg). Animals were orally given test samples.
# Diabetic nephropathy model animals were fed with a low-fat feed (11.9 kcal % fat, 5053, Labdiet). Animals with a blood glucose level of 300 mg/dl and a body weight (BW) of more than 300 g were selected and treated with test samples for 4 and 8 weeks, respectively (total 12 and 16 weeks old). In-vivo changes in glycosylated hemoglobin (HbAlc), urine albumin and urine protein (1,000× urine albumin/urine creatinine) associated with kidney diseases were observed. Albumin was measured using an immunoturbidimetric assay, and creatinine was measured using a Jaffe rate method.
structure (smiles),measurement,setting,value
"CC1(C)CCC2=C(O1)c1ccccc1C(=O)C2=O [Example 1, 7,8-dihydro-2,2-dimethyl-2H-naphtho(2,3-b)dihydropyran-7,8-dione]",serum creatinine level,"[1]; 200 mg/kg oral for two weeks before IR induction, serum on +1, +3, +5 day, vs control group, most prominent after 3 days of reperfusion (FIG. 1)",significantly decreased
same,serum BUN (blood urea nitrogen) level,"[1]; 200 mg/kg oral for two weeks before IR induction, serum on +1, +3, +5 day, vs control group, most remarkable after 3 days of reperfusion (FIG. 2)",significant reduction
same,glomerular filtration rate,"[1]; 200 mg/kg oral, inferred from serum creatinine and BUN results",elevation
same,glycosylated hemoglobin (HbAlc),[2]; treated 4 and 8 weeks (FIG. 3),significantly low
same,urine albumin level,"[2]; treated 4 and 8 weeks, compared with Rosiglitazone 6 mg/kg group (FIG. 5)",lower
same,daily urine protein level (1000× urine albumin/urine creatinine),"[2]; treated 4 and 8 weeks, compared with Rosiglitazone 6 mg/kg group (FIG. 6)",lower
same,left kidney weight,"[2]; treated 4 and 8 weeks, vs diabetic nephropathy-induced control group (FIG. 4)",significant decrease
